“And” between values parts separate entries of the source, which are not always exact repeats. Equal entries are not always repeated.
Tests used:
[1] = tested on: p38 MAP kinase; test: In vivo target inhibition (IVTI) of p38 MAP kinase in naïve C57BL/6 mice (p-MAPKAPK2 in PBMCs, flow cytometry); conditions: 2 hours post-dose
Experimental: IVTI of p38 MAP kinase is measured in peripheral blood mononuclear cells (PBMCs) of mice dosed orally with test compound using a flow cytometry assay for p-MAPKAPK2, a p38 MAP kinase substrate.
Male C57BL/6 mice (6-8 weeks old) are randomized into groups of 4. Test compound is administered by oral gavage in a 0.1 mL volume of vehicle (1% hydroxyethyl cellulose (HEC), 0.25% TWEEN® 80, 0.05% antifoam). Control animals are administered 0.1 mL vehicle with no test compound. For single dose and dose response studies, animals are sacrificed 2 hour post-dose. For time-course studies, animals are sacrificed at different time-points post-dose, typically, 1, 2, 4, 6, 18 and 24 hours. Whole blood is collected in EDTA-coated tubes (AQUISEL).
100 μL mouse whole blood is added into each EDTA tube and incubated at 37° C. for 10 minutes. […]
Samples are incubated at RT for 30 minutes. […] Samples are analyzed by flow cytometry (FACScaliber, BD). After defining the viable single cell population by side and forward scatter, the level of p-MAPKAPK2 is measured in the monocyte population defined (gated) by CD11b^hiLy6G^−.
The median fluorescence intensity in the monocyte cells is analyzed to determine the level of p-MAPKAPK2. […] Percent inhibition by test compound is determined by using the following equation: […]

[2] = tested on: p38 MAP kinase; test: Inhibition of p38 MAP kinase in the cell-based assay (p-MAPKAPK2 cELISA, TNFα-stimulated HeLa cells); conditions: Homo sapiens, TNFα stimulation, read-out: Relative IC50

IC50 [2]: 1.6 nM
Compound: COCC[C@H](C)Nc1nc2ccc(-c3nc(C(C)(C)CO)[nH]c3-c3ccc(F)cc3F)nc2o1 [Example 1, 2-[5-(2,4-Difluorophenyl)-4-[2-[[(1S)-3-methoxy-1-methyl-propyl]amino]oxazolo[5,4-b]pyridin-5-yl]-1H-imidazol-2-yl]-2-methyl-propan-1-ol]
Threshold Efficacious Dose for 70% inhibition (TED70) ([1]; oral, PBMCs): 5.1 mg/kg
Threshold Efficacious Concentration for 70% inhibition (TEC70) ([1]; plasma): 39.4 ng/mL and 0.084 μM
